Data set [1] can be described thus: Electrochemical treatment of medium, removal rate of phenolic and furanic compounds. Type of data set: physicochemical. The following applies: 0.5 g/L added to medium; for Removal rate: wt %. The procedure:
In order to measure the removal rate of phenolic and furanic compounds, p-coumaric acid, ferulic acid, syringaldehyde and vanillin were selected as phenolic compounds and furfural and 5-hydroxymethylfurfural were selected as furanic compounds. After adding 0.5 g/L of each of the selected 6 inhibitors to a medium, electric current was flown at each optimum oxidation voltage and then removal rate was measured.
(§1) A potentiostat (WonA Tech, WMPG 1000) was used for the electrochemical treatment of the medium. Graphite felt was used as an electrode. Specifically, the electrochemical treatment was conducted for by 5 hours at an oxidation peak voltage of each fermentation inhibitor (800 mV for coumaric acid and ferulic acid, 2 V for syringaldehyde and vanillin, 1.8 V for furfural and 5-hydroxyfurfural). Then, the fermentation inhibitors were removed using such methods as gravitational sedimentation, centrifugation, membrane separation, etc. The percentage of the removal rate is wt %.
After the culturing was completed, the concentrations of phenolic and furanic compounds, sugars and acetic acid were measured for each culture. The concentration was analyzed by liquid chromatography (Agilent model 1200). The phenolic compounds were analyzed using a diode array detector and a Zorbax eclipse XDB-C18 column (150×4.6 mm, 3.5 μm). The sugars and acetic acid were analyzed using a refractive index detector and an Aminex HPX-87H column (300×7.8 mm). The growth of the microorganisms was analyzed by measuring absorbance at 600 nm with a spectrophotometer (UVmini-1240, Shimadzu). The concentration of butyric acid and butanol was analyzed using a gas chromatography system (Agilent technology 6890N Network GC system) equipped with a flame ionized detector and an HP-INNOWax column (30 m×250 μm×0.25 μm, Agilent Technologies).

Data set [2] can be described thus: Cyclic voltammetry, oxidation peak voltage. Type of data set: physicochemical. The method, then:
First, the optimum voltage for removing each phenolic compound through the electrochemical treatment was determined by cyclic voltammetry. […] In FIG. 1, the abscissa represents voltage (V) and the ordinate represents current (A). […] This means that each of the phenolic compounds is removed by oxidation at the intrinsic voltage.
as §1

Data set [3] relates to Clostridium tyrobutyricum. The data set can be described thus: Cellular growth of Clostridium tyrobutyricum (absorbance at 600 nm). Type of data set: cell-based. The note with it: 0.5 g/L in medium, before electrochemical treatment, FIG. 2, read-out: inhibition of the growth of the microorganisms. An excerpt: (§2) As a butyric acid fermentation medium, a medium containing 20 g of glucose, 5 g of yeast extract, 0.2 g of magnesium sulfate, 0.01 g of manganese sulfate, 0.01 g of ferric sulfate, 0.01 g of sodium chloride, 0.5 g of monopotassium phosphate (KH2PO4), 0.5 g of dipotassium phosphate (K2HPO4) and 2 g of ammonium acetate per 1 L of the medium was used. As a butanol fermentation medium, a medium containing 20 g of glucose, 1 g of yeast extract, 0.2 g of magnesium sulfate, 0.01 g of manganese sulfate, 0.01 g of ferric sulfate, 0.01 g of sodium chloride, 0.5 g of monopotassium phosphate (KH2PO4), 0.5 g of dipotassium phosphate (K2HPO4) and 2 g of ammonium acetate per 1 L of the medium was used. Each medium was gas-substituted with argon gas and sterilized at 121° C. for 15 minutes before the experiment. […]
(§3) After the culturing was completed, the concentrations of phenolic and furanic compounds, sugars and acetic acid were measured for each culture. The concentration was analyzed by liquid chromatography (Agilent model 1200). The phenolic compounds were analyzed using a diode array detector and a Zorbax eclipse XDB-C18 column (150×4.6 mm, 3.5 μm). The sugars and acetic acid were analyzed using a refractive index detector and an Aminex HPX-87H column (300×7.8 mm). The growth of the microorganisms was analyzed by measuring absorbance at 600 nm with a spectrophotometer (UVmini-1240, Shimadzu). […]

Data set [4] has as its system Clostridium tyrobutyricum. Briefly: Production of butyric acid by Clostridium tyrobutyricum. Type of data set: cell-based. The following applies: 0.5 g/L in medium, after electrochemical treatment at optimum voltage, FIG. 3.
Source text: as §2, §3

Another data set deals with Clostridium beijerinckii. Briefly: Production of butanol by Clostridium beijerinckii. In kind it is cell-based. The note with it: 0.5 g/L in medium, after electrochemical treatment, FIG. 5.
Source text: as §2, §3

The mark [5] stands for this setting: 1st treatment, 5 hours at oxidation peak voltage.

As to `O=Cc1ccco1` [Furfural, furfural], in data set [1] (setting [5]), the Post-treatment concentration is 0 g/L and the Removal rate was found to be 100%. In data set [1] (2nd treatment), this compound showed a Post-treatment concentration of 0 g/L and a Removal rate of 100%. This compound also gave an oxidation peak voltage in data set [2] of 1.8 V.

As for `COc1cc(C=O)ccc1O` [Vanillin, vanillin], the Post-treatment concentration in data set [1] (setting [5]) was 0.251 g/L; in data set [1] (2nd treatment) it was 0.089 g/L. Also, the Removal rate in data set [1] (setting [5]) is recorded as 49.8%; in data set [1] (2nd treatment) it was 82.2%. For the same compound, the oxidation peak voltage in data set [2] was 2 V.

Usually inhibition stands for the change of the read-out against control, counted positive when it falls. As for `O=C(O)/C=C/c1ccc(O)cc1` [p-Coumaric acid, p-coumaric acid], the values for the Post-treatment concentration in data set [1] (setting [5]) and in data set [1] (2nd treatment) were 0.25 g/L and 0.11 g/L, respectively. The Removal rate in data set [1] (setting [5]) worked out at 50.0%; in data set [1] (2nd treatment), 78.0%. This compound also displayed an oxidation peak voltage in data set [2] of 800 mV. The inhibition at 500 µg/mL in data set [3] is about 100%. Moreover, in data set [4], the “toxicity reduced by the electrochemical treatment” value was about 100%. Besides, in the data set with Clostridium beijerinckii, the “decrease in butanol production recovered by the electrochemical treatment” value is about 100%.

In data set [1] (setting [5]), `O=Cc1ccc(CO)o1` [HMF, 5-hydroxymethylfurfural] had a Post-treatment concentration of 0 g/L and a Removal rate of 100%. Also, in data set [1] (2nd treatment), the Post-treatment concentration was 0 g/L and the Removal rate stood at 100%. In data set [2], this compound gave an oxidation peak voltage of 1.8 V.

Take `COc1cc(/C=C/C(=O)O)ccc1O` [Ferulic acid, ferulic acid]: in data set [1] (setting [5]), the Post-treatment concentration turned out to be 0.3475 g/L and the Removal rate is on record as 30.5%. Also, in data set [1] (2nd treatment), the Post-treatment concentration is 0.1155 g/L and the Removal rate is listed as 76.9%. In data set [2], this compound displayed an oxidation peak voltage of 800 mV.

As to `COc1cc(C=O)cc(OC)c1O` [Syringaldehyde, syringaldehyde], in data set [1] (setting [5]), the Post-treatment concentration is on record as 0.109 g/L and the Removal rate is 78.2%. For the same compound, in data set [1] (2nd treatment), the Post-treatment concentration worked out at 0.0265 g/L and the Removal rate came to 94.7%. The same compound came in with an oxidation peak voltage in data set [2] of 2 V.
